Assay results from patent US9504657B2, “Fixed dose combination therapy of Parkinson's disease” (PHARMA TWO B LTD., priority 2012, dated 2016).

Assays:
[1] = test system: dopamine levels in mouse brain; experiment: In vivo study of drugs in MPTP mice model of Parkinson's disease, striatal dopamine by HPLC; settings: IP daily 12 days, rasagiline 0.15 mg/Kg, pramipexole 0.12, 0.1, 0.075 mg/Kg, alone or combined
Description: Male C57B1/6 mice weighing 20+/−1 g are used (6-10 mice per group). MPTP is administrated by intraperitonealy (IP) injection at a dose of 40 mg/Kg per day for 5 days. Controls are naïve untreated mice injected with saline, and MPTP treated mice injected with saline (no drug treatment). Drugs, rasagiline (0.15 mg/Kg) and pramipexole (3 different doses of 0.12, 0.1 and 0.075 mg/Kg), are given alone or in 3 fixed dose combinations of rasagiline and pramipexole. The fixed dose combinations are composed of rasagiline at a constant dose of 0.15 mg/Kg and pramipexole at 3 different doses as indicated above. Both drugs are dissolved together at saline from their stock solutions to give the final desired combination dose. The application of the drugs is done daily intraperitonealy (IP) injection 30 minutes before MPTP administration. […] The effect of the treatments is assessed by measurement of dopamine and its metabolites (dihydroxyphenylacetic acid and Homovanillic acid) in left and right striatum together taken from the mice at the end of the experiment. […]
Striatum tissue samples are homogenized in ice in 500 μl homogenization buffer (0.1M perchloric acid, 0.02% EDTA and 1% ETOH) using OMNI Tip homogenizing kit of OMNI International (intermediate speed, 3×10 seconds with 5 seconds intervals). […] The supernatants are transferred into fresh tubes and Dopamine content is analyzed by HPLC. […]

[2] = test system: Parkinson's disease patients; settings: 1 mg immediate release rasagiline added to pramipexole averaging 1.5 mg per day; cited from earlier work

For `C#CCN[C@@H]1CCc2ccccc21` [rasagiline], the “effect of treatment on Dopamine levels compared to saline” value [1] is listed as “very low” and the “combined effect on total UPDRS score, reduction compared to placebo” value [2] is listed as 2.4 UPDRS points.
